Reference: patent US20080014272A1, “Compositions and Methods for Treatment of Chronic Pain Conditions” (priority 2006, published 2008)

Experiments:
[1] = Visual analog scale (VAS) of osteoarthritis pain in human osteoarthritis subjects; format: in vivo; conditions: 400 mg bicifadine and/or 800 mg ibuprofen twice daily for seven days; baseline to 3 hours post dose on final day; FIG. 2
Procedure: (§1) 23 adult human subjects with clinically confirmed osteoarthritis (OA) of the hip or knee were selected based on (1) a finding of OA through clinical analysis of hip or knee pain for at least six months, (2) stiffness symptoms that persisted for more than 30 minutes (4) crepitus and (5) score of >40 mm on the visual analog scale (VAS). […]
(§2) Each patient's pain and function levels was rated just prior to administration of the first dose in each treatment period to establish a baseline and three hours after administration of the final dose of each treatment period. Subjects were evaluated according to the visual analog scale (FIG. 2), the Western Ontario and MacMaster Universities Osteoarthritis Index (WOMAC) (FIG. 3) and a global assessment score (FIG. 4).
For the visual analog scale, each subject was asked the following question: “Draw a vertical line on the scale to indicate the average amount osteoarthritis pain you have in your index hip or knee in the prior 24 h period. • No Pain [______] Worst Pain You Can Imagine 100 mm The length of the line from “No Pain” to the vertical line drawn by the patient was then measured to determine the VAS measurement.

[2] = WOMAC Osteoarthritis Index in human osteoarthritis subjects; format: in vivo; conditions: 400 mg bicifadine and/or 800 mg ibuprofen twice daily for seven days; 3 h post-dose on last day; FIG. 3
Procedure: as §1, §2
Subjects were also evaluated according to the Western Ontario and MacMaster Universities Osteoarthritis Index (WOMAC) and asked the following series of questions: […]

[3] = Use of rescue medication in acute dental pain clinical trial (Stern et al.); format: in vivo, human
Procedure: These conclusions are further substantiated by the use of rescue medication by subjects in the Stem et al. acute dental pain studies. Table I below summarizes information on the use of rescue medication for patients who took rescue medication among the various treatment groups in the clinical trial reported by Stern et al. (id.) A nonparametric analysis (Median Test) was conducted to evaluate the median latency to rescue medication.
Survival analysis (Kaplan-Meier method, 95% confidence) was performed to compare the treatment groups with regard to time-to-rescue medication. […] The analysis yielded a statistically significant difference among the treatment groups (Log-Rank test, Chi-square=26.9, df=4, P=0.0001). […] In view of the foregoing evidence, the present disclosure documenting efficacy of a reduced, bi-daily or less frequent dosing regimen of bicifadine to yield effective treatment of chronic pain are unexpected. […] It is a surprising benefit, therefore, that a dosing regimen consisting of only one or two doses of bicifadine effectively alleviates symptoms of chronic pain over an extended period. The extended period of efficacy of the novel compositions and dosage forms of the invention provide significant relief of chronic pain symptoms over a period of at least 8 hours, or at least 12 hours, often at least 18 hours, and up to 24 hours or longer.

[4] = Duration of analgesic efficacy and plasma bicifadine levels in acute pain studies; format: in vivo, human; conditions: bicifadine HCl, unit doses about 200 mg, 400 mg, or 600 mg; acute dental pain and bunionectomy pain studies
Procedure: Duration of analgesic efficacy of bicifadine in acute dental pain studies was estimated using a “last observation carried forward” (LOCF) statistical method, and was projected to last up to 6 hours, or even up to 12 hours (see, e.g., Czobor P., et al., Stark J., Beer G., Petti S., Lippa A., Brown J., Beer B.: A Double-Blind, Placebo Controlled Randomized Study of DOV220,075 (bicifadine) SR and Codeine 60 mg in the Treatment of Post-Operative Dental Pain. Presented at the 2nd Annual Scientific Meeting Mar. 20-23, 2003 Chicago, Ill. American Pain Society Abstract Database at http://www.ampainsoc.org/abstract/2003/data/index.html. (Poster #915)); Czobor P., Stark J., Beer G., Brown J., Sunshine A., Konery S., Turpin M., Olson N., Otero A., Lippa A., Beer B.: A two center double-blind, placebo-controlled randomized study of DOV 220,075 (bicifadine) SR and Tramadol 100 mg in the treatment of post-operative dental pain. The Journal of Pain, 2004: 5(1), Supplement 1, p 59. Presented at the Joint APS and Canadian Pain Society Annual Meeting (23rd APS Annual Scientific Meeting) May 6-9, 2004, Vancouver, BC Canada. American Pain Society Abstract Database at http://www.ampainsoc.org/abstract/2004/data/index.html (Poster #801); each incorporated herein by reference). […]

[5] = Monoiodoacetamide (MIA)-induced osteoarthritis in rats, hind paw weight distribution; format: in vivo, Male Wistar rats; conditions: oral gavage (PO), Day 14 post MIA injection, 1 and 2 hours post-administration; bicifadine 5, 10, 20, 40 or 60 mg/kg, morphine 60 mg/kg; FIG. 1
Procedure: Animals were fed standard rat chow with water available ad libitum.
The rats were anesthetized with 5% volume/volume (“v/v”) isoflurane gas and maintained with 2% v/v isoflurane gas. […] MIA was dissolved in physiologic saline and administered in a volume of 50 μL. The contralateral control knee was injected with 50 μL of physiologic saline. Administration of isoflurane gas was discontinued, and the rats became fully conscious about 5 minutes later.
Shifts in hind paw weight distribution from the right to the left hind paws supporting the right (arthritic) and the left (contralateral control) hind leg knee joints were utilized as an index of joint pain and as a measure of compound efficacy. An incapacitance tester (Model 2KG, Linton Instrumentation, UK) was employed for determination of hind paw weight distribution.
The acute dosing paradigm used herein relates to osteoarthritis signs such as mobility and joint function and osteoarthritis symptoms such as joint pain.

[6] = Global Assessment of Study Medication in human osteoarthritis subjects; format: in vivo; conditions: 400 mg bicifadine and/or 800 mg ibuprofen twice daily for seven days; 3 h post-dose on last day; scale 0-4; FIG. 4
Procedure: 23 adult human subjects with clinically confirmed osteoarthritis (OA) of the hip or knee were selected based on (1) a finding of OA through clinical analysis of hip or knee pain for at least six months, (2) stiffness symptoms that persisted for more than 30 minutes (4) crepitus and (5) score of >40 mm on the visual analog scale (VAS). […] (Altman R. Asch E, Bloch D, Bole G, Borenstein D, Brandt K, et al. The American College of Rheumatology criteria for the classification and reporting of osteoarthritis of the knee. Arthritis Rheum 1986; 29:1039-1049) The subjects were randomized to a sequence of 400 mg of bicifadine twice daily for seven days (B), ibuprofen 800 mg twice daily for seven days (I), placebo twice daily for seven days (P), or 400 mg bicifadine and 800 mg ibuprofen twice daily for seven days (B+I) as shown in Table 3. […]
as §2
Subjects were further evaluated for a global assessment and were asked the following question: […]

[7] = acute dental pain; Stern et al. 2005; cited from earlier work

SMILES	Reduction of OA pain as measured by the visual analog scale [1]	Improvement of functioning as determined by the WOMAC osteoarthritis index [2]	Time-to-rescue medication vs placebo (Kaplan-Meier survival analysis, Log-Rank test) ([3]; 100-mg, Chi-square=18.7, df=1, P=0.0001)	Median Time to Rescue Medication ([3]; single dose 100 mg) [h]	Used Rescue Medication (N) No ([3]; single dose 100 mg)	Used Rescue Medication (N) Yes ([3]; single dose 100 mg)	Period of analgesic efficacy for effectively treating acute pain [4]	Effect on osteoarthritis-related pain (change in hind paw weight distribution) [5]	Global assessment score of study medication [6]	Plasma bicifadine levels associated with the greatest pain relief [7] [ng/mL]	Plasma drug levels associated with significant analgesic efficacy [7] [ng/mL]	Plasma drug levels not associated with significant analgesic effects [7] [ng/mL]
CC(C)Cc1ccc(C(C)C(=O)O)cc1 (centres unmarked) [ibuprofen, reference compound]	no different than treatment with placebo	no better than placebo	–	–	–	–	–	–	–	–	–	–
COc1cccc(C2(O)CCCCC2CN(C)C)c1 (centres unmarked) [Tramadol]	–	–	significantly less likely to use rescue medication	2.45	24	85	–	–	–	–	–	–
Cc1ccc(C23CNCC2C3)cc1 (racemic) [bicifadine, (±)-1-(4-methylphenyl)-3-azabicyclo[3.1.0]hexane]	no different than treatment with placebo	no better than placebo	–	–	–	–	up to 6 hours	no significant effect	marginally better than treatment with either placebo or ibuprofen alone	> 1000	500 to 1000	≤ 500
